# Source: patent publication US20250073303A1, “TDP-43 Interference Peptides, Methods, and Uses Thereof” (The University of British Columbia, priority 2022, published 2025)
# Legend:
# [1] = system: mice with LPS plus sciatic nerve axotomy; test: LPS (5 mg/kg) plus sciatic nerve axotomy in mice: Fluoro Jade C neurodegeneration staining; format: in vivo, mouse; conditions: 20 mg/kg daily i.p., day 7
# Experimental: FIG. 14: Example peptide D prevents neurodegeneration in ventral horn of spinal cord of mice with LPS plus sciatic nerve axotomy. Mice underwent LPS administration (5 mg/kg, i.p.) plus sciatic nerve axotomy on day 0 and tissues were collected and fixed on day 7 after the surgical procedure. Fluoro Jade (neurodegeneration marker) staining of ventral horn of spinal cord of mice in each indicated treatment group (upper panel) and counterstained with DAPI (lower panel). 20 mg/kg of peptide D was injected daily through i.p. route.
# Neurodegeneration in the lumbar spinal cord of mice 7 days after administration of LPS plus surgery was then evaluated using Fluoro Jade C staining. Animals were divided into two peptide D treatment groups. In one group, peptide D administration started on the day of surgery, and in the other group, peptide D treatment started at 3 days post-surgery when the TDP-43 proteinopathies were at their maximum.
# [2] = system: SH-SY5Y cells; test: Stress granule (TIA-1) numbers in SH-SY5Y cells with sodium arsenite; format: cell-based, human; conditions: 1 mM sodium arsenite 1 hour, TIA-1 staining, vs scramble
# [3] = target: T1, TDP-43 (Mus musculus, UniProt Q921F2); test: LPS (5 mg/kg) plus sciatic nerve axotomy in mice: TDP-43 and phosphoTDP-43 aggregates; format: in vivo; design: from tissue; host or cells: ventral lumbosacral spinal cord of mice, axotomy side; conditions: LPS 5 mg/kg i.p. plus axotomy, day 3 post-surgery, 10 and 20 mg/kg once daily i.p.
# Experimental: FIG. 13: Example peptide D dose dependently reduces TDP-43 and phosphoTDP-43 aggregates in lumbar spinal cord of mice with LPS plus sciatic nerve axotomy. Western blot analysis of TDP-43 and phosphoTDP-43 expression in the soluble and insoluble fraction of ipsilateral lumbar spinal cord tissue that was collected in mice three days post LPS (5 mg/kg) plus sciatic nerve axotomy procedure. Group 1: Non-surgical mice. Group 2: Control mice with LPS plus sciatic nerve axotomy. Group 3: 10 mg/kg of peptide D treatment (once daily, i.p.) in mice with LPS treatment plus sciatic nerve axotomy. Group 4: 20 mg/kg of peptide D treatment (once daily, i.p.) in mice with LPS treatment plus sciatic nerve axotomy.
# This mouse model was further optimized by adding one dose of lipopolysaccharide (LPS) injection (5 mg/kg, i.p.) when performing surgery. LPS injection aggravated the observed TDP-43 proteinopathy as assessed at day 3 post-surgery.
# [4] = target: T1, TDP-43; test: Sodium arsenite induced TDP-43 and phosphoTDP43 aggregates in HL-1 cells; format: cell-based; design: endogenous in cells; host or cells: HL-1 cells (cardiomyocytes); conditions: 0.05 mM sodium arsenite 16 hours
# Experimental: FIG. 12. Example peptide D reduces TDP-43 and phosphoTDP43 aggregates in HL-1 cells following sodium arsenite treatment. Western blot analysis of protein expression (TDP-43, phosphoTDP-43, PARP and actin) in either soluble or insoluble fractions of HL-1 cells with 16 h treatment of sodium arsenite (0.05 mM).
# In order to evaluate the function of example peptide D on alleviation of TDP-43 proteinopathies in cardiomyocytes, 0.05 mM of sodium arsenite was employed to treat HL-1 cells for 16 hours to induce TDP-43 and phosphoTDP43 aggregates. […] 20 μM of peptide D treatment in HL-1 cells under the same treatment conditions reduced insoluble aggregates of TDP-43 and phosphoTDP-43.
# T1 sequence (Q921F2 whole entry): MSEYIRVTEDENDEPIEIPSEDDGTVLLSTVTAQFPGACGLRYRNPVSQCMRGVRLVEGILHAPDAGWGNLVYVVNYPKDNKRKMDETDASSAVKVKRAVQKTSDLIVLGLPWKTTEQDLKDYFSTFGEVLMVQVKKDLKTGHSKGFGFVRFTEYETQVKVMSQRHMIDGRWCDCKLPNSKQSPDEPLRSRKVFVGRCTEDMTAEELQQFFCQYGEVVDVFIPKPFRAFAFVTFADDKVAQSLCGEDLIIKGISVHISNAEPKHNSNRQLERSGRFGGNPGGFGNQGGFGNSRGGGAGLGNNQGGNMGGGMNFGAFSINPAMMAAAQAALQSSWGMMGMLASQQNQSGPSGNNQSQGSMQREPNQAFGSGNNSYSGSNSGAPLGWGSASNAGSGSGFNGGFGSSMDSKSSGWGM
substance,measurement,setting,value
"peptide D: candidate peptide from a CK-1δ binding region for TDP-43, truncated HIV-1 TAT domain added at the N-terminal (YGRKKRRQRRRGFSYDYVFDWNMLK)",neurodegeneration in the ventral horn of spinal cord (Fluoro Jade C),[1]; administration started on the day of surgery,less neurodegeneration
same,neurodegeneration in the ventral horn of spinal cord (Fluoro Jade C),[1]; treatment started at 3 days post-surgery,less neurodegeneration
same,number of stress granules (SGs) induced by sodium arsenite,[2],reduced
same,TDP-43 and phosphoTDP-43 aggregation,[3],reduced TDP-43 and phosphoTDP-43 aggregation in a dose dependent manner
same,insoluble aggregates of TDP-43 and phosphoTDP-43,[4]; 20 μM peptide,reduced
same,PARP cleavage product,[4]; treated vs untreated cells,reduced
